Target: Transient receptor potential cation channel subfamily M member 8 (Homo sapiens, UniProt Q7Z2W7)
Assay: The agonisation or antagonisation of the receptor can be quantified by means of a Ca2+-sensitive dye (e.g. FURA, Fluo-4, etc.). Agonists on their own bring about an increase in the Ca2+-signal; antagonists in the presence of, for example, menthol bring about a reduction in the Ca2+-signal (in each case detected by means of the Fluo-4 dye, which due to the Ca2+ has other fluorescent properties).To begin with, in a manner known per se, in cell culture flasks a fresh culture of transformed HEK cells is prepared. The HEK293-TRPM8 test cells are removed using trypsin from the cell culture flasks and 40 000 cells/well are sown with 100 μl medium in 96-well plates (Greiner #655948 Poly-D-lysine coated). In order to induce the TRPM8 receptor the growth medium tetracycline is mixed in (DMEM/HG, 10% FCS tetracycline-free, 4 mM L-glutamine, 15 μg/ml blasticidin, 100 μg/ml hygromycin B, 1 μg/ml tetracycline). The next day the cells are charged with Fluo-4Am dye and the test is performed. The procedure is as follows: Addition of 100 μl/well of dye solution Ca-4 Kit (RB 141, Molecular Devices) per 100 μl of medium (DMEM/HG, 10% FCS tetracycline-free, 4 mM L-glutamine, 15 μg/ml blasticidin, 100 μg/ml hygromycin B, 1 μg/ml tetracycline). Incubation in the incubator for 30 minutes/37° C./5% CO2, 30 minutes/RT. […]

Sequence of Transient receptor potential cation channel subfamily M member 8 (Q7Z2W7 whole entry): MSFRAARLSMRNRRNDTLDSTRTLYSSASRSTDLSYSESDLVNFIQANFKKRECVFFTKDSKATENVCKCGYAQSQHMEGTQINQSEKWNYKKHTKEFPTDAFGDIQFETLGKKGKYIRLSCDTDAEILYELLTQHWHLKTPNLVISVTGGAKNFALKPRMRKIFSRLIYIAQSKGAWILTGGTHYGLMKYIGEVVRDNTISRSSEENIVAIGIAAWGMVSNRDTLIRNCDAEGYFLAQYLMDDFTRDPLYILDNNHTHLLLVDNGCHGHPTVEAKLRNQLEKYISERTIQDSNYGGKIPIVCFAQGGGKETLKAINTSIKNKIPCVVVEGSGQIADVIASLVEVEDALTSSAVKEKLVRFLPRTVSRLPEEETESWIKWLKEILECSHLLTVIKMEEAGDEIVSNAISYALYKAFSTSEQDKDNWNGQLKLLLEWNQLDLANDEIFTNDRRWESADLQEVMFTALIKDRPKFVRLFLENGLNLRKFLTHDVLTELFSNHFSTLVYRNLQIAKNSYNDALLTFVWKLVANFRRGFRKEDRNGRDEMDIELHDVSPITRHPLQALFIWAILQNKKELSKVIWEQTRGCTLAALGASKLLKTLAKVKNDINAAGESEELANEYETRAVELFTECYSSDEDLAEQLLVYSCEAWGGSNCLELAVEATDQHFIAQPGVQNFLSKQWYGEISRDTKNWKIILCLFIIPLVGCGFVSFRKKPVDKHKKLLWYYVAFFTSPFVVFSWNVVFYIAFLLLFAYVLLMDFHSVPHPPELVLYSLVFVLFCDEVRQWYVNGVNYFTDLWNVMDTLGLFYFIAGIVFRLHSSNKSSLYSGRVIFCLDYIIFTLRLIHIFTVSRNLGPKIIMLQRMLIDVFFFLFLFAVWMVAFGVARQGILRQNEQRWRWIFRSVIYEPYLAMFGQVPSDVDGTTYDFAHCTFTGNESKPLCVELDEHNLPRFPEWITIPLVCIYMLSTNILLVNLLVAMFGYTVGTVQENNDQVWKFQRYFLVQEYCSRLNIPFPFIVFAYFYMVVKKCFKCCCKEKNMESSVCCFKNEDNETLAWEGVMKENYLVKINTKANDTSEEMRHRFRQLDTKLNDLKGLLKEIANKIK

Row | Compound | EC50
1 | COc1cnc(-c2ccccn2)nc1OC(C)C | 3200 nM
2 | COc1cnc(-c2ccccn2)nc1NC(C)C(C)C (configuration not stated) | 500 nM
